The text below walks through data of ChEMBL document CHEMBL4715894, “Design and synthesis of an anthranyl bridged optically active dinuclear iron(II)-ligand and evaluation of DNA-cleaving activity” (Bioorg Med Chem Lett, 2021).

Each structure is given as a SMILES string. Calls of active or inactive are those of the source. The calls are words filed in the database; no cut-off is given here.

Holding throughout (type): nucleic-acid assay
The subject of assay [1] is DNA. Put plainly: Induction of DNA cleavage in Escherichia coli ER2272 pUC19 plasmid DNA assessed as decrease in linear DNA at 15 uM in presence of Fe2+ at 30 uM <=15 min by ethidium bromide staining based densitometric method. To be noted: time min <=15.
Assay [2] deals with DNA. Briefly: Induction of DNA cleavage in Escherichia coli ER2272 pUC19 plasmid DNA assessed as decrease in relaxed circular DNA at 0.1 to 50 uM in presence of Fe2+ at 10 uM after 60 mins by ethidium bromide staining based densitometric method. To be noted: dose 0.1-50 µM.
Assay [3] concerns DNA. Put plainly: Induction of DNA cleavage in Escherichia coli ER2272 pUC19 plasmid DNA assessed as increase in relaxed circular DNA at 15 uM in presence of Fe2+ at 30 uM after 1 min by ethidium bromide staining based densitometric method.
The test system of assay [4] is DNA. Put plainly: Induction of DNA cleavage in Escherichia coli ER2272 pUC19 plasmid DNA assessed as decrease in supercoiled DNA at 0.1 to 50 uM in presence of Fe2+ at 10 uM after 60 mins by ethidium bromide staining based densitometric method relative to control. On the set-up: scale not given: the % may be the effect or the level left. Conditions: dose 0.1-50 µM.

Assay [5] deals with DNA. Briefly: Induction of DNA cleavage in Escherichia coli ER2272 pUC19 plasmid DNA assessed as decrease in supercoiled DNA at 15 uM in presence of Fe2+ at 30 uM after 1 min by ethidium bromide staining based densitometric method relative to control.
In assay [6] the test system is DNA. Briefly: Induction of DNA cleavage in Escherichia coli ER2272 pUC19 plasmid DNA assessed as decrease in relaxed circular DNA at 0.1 to 50 uM in presence of Fe2+ at 30 to 50 uM after 60 mins by ethidium bromide staining based densitometric method. To be noted: dose 0.1-50 µM.
Assay [7] concerns dsDNA. Put plainly: Induction of DNA cleavage in pBluescript II SK+ DNA (unknown origin) assessed as cleaved in 5'-TTAATT-3' sequence at 5 uM in presence of Fe2+ at 30 uM after 10 mins by PAGE based DNA sequencing analysis.
Assay [8] deals with dsDNA. Briefly: Induction of DNA cleavage in pBluescript II SK+ DNA (unknown origin) assessed as cleaved in 5'-AATTCCGGAA-3' sequence at 5 uM in presence of Fe2+ at 30 uM after 10 mins by PAGE based DNA sequencing analysis.
In assay [9] the test system is DNA. Briefly: Induction of DNA cleavage in Escherichia coli ER2272 pUC19 plasmid DNA assessed as increase in linear DNA at 15 uM in presence of Fe2+ at 30 uM after 1 min by ethidium bromide staining based densitometric method.
The subject of assay [10] is DNA. Briefly: Induction of DNA cleavage in Escherichia coli ER2272 pUC19 plasmid DNA assessed as decrease in linear DNA at 0.1 to 50 uM in presence of Fe2+ at 30 to 50 uM after 60 mins by ethidium bromide staining based densitometric method. To be noted: dose 0.1-50 µM.
The test system of assay [11] is DNA. Briefly: Induction of DNA cleavage in Escherichia coli ER2272 pUC19 plasmid DNA assessed as decrease in relaxed circular DNA at 15 uM in presence of Fe2+ at 30 uM <=15 min by ethidium bromide staining based densitometric method. To be noted: time min <=15.
Assay [12] deals with DNA. Briefly: Induction of DNA cleavage in Escherichia coli ER2272 pUC19 plasmid DNA assessed as linear DNA at 0.1 to 50 uM in presence of Fe2+ at >5 uM uM after 60 mins by ethidium bromide staining based densitometric method. To be noted: dose 0.1-50 µM.
In assay [13] the test system is DNA. Put plainly: Induction of DNA cleavage in Escherichia coli ER2272 pUC19 plasmid DNA assessed as decrease in supercoiled DNA at 0.1 to 50 uM in presence of Fe2+ at 30 to 50 uM after 60 mins by ethidium bromide staining based densitometric method. To be noted: dose 0.1-50 µM.
Assay [14] has as its system DNA. Put plainly: Induction of DNA cleavage in Escherichia coli ER2272 pUC19 plasmid DNA assessed as decrease in supercoiled DNA at 0.1 to 50 uM in presence of Fe2+ at 0.1 to 5 uM after 60 mins by ethidium bromide staining based densitometric method. To be noted: dose 0.1-50 µM.
The test system of assay [15] is dsDNA. Briefly: Induction of DNA cleavage in pBluescript II SK+ DNA (unknown origin) assessed as cleaved in 5'-CT-3' sequence at 30 uM in presence of Fe2+ at 30 uM after 30 mins by PAGE based DNA sequencing analysis.
Assay [16] deals with DNA. Put plainly: Induction of DNA cleavage in Escherichia coli ER2272 pUC19 plasmid DNA assessed as increase in relaxed circular DNA at 30 uM in presence of Fe2+ at 30 uM by ethidium bromide staining based densitometric method. To be noted: time min <=15.
Assay [17] concerns DNA. Briefly: Induction of DNA cleavage in Escherichia coli ER2272 pUC19 plasmid DNA assessed as linear DNA at 30 uM in presence of Fe2+ at 30 uM up to 15 mins by ethidium bromide staining based densitometric method. Conditions: time min <=15.
The subject of assay [18] is DNA. Put plainly: Induction of DNA cleavage in Escherichia coli ER2272 pUC19 plasmid DNA assessed as decrease in supercoiled DNA at 30 uM in presence of Fe2+ at 30 uM by ethidium bromide staining based densitometric method. Conditions: time min <=15.

As for `c1ccc(CN(Cc2ccccn2)[C@@H]2CCCC[C@H]2NCc2cccc3cc4cccc(CN[C@@H]5CCCC[C@H]5N(Cc5ccccn5)Cc5ccccn5)c4cc23)nc1`, the outcome in the assay with DNA [1], in the assay on DNA [2], in the assay on DNA [3], in the assay with DNA [4], with DNA [5] and in the assay on DNA [6] was Active. The outcome in the assay with dsDNA [7], in the assay with dsDNA [8], in the assay on DNA [9], in the assay on DNA [10], with DNA [11] and with DNA [12] was Active. Also, in the assay on DNA [13], the result was Active.

`N[C@H]1CCCC[C@@H]1N(Cc1ccccn1)Cc1ccccn1`: the Activity with DNA [4] is 100%. In addition, the outcome in the assay on DNA [12], in the assay on DNA [14] and in the assay on dsDNA [15] was Active.

Consider `c1ccc(CN(Cc2ccccn2)[C@H]2CCCC[C@@H]2NCc2cccc3cc4cccc(CN[C@H]5CCCC[C@@H]5N(Cc5ccccn5)Cc5ccccn5)c4cc23)nc1`, for which the result with DNA [2], in the assay on DNA [4], in the assay with DNA [6], in the assay with dsDNA [7], with dsDNA [8] and in the assay with DNA [10] was Active. In addition, the outcome with DNA [12] and with DNA [13] was Active.

For the compound `N[C@@H]1CCCC[C@H]1N(Cc1ccccn1)Cc1ccccn1`, the outcome in the assay with DNA [16], with DNA [18], in the assay with DNA [12], in the assay with DNA [14] and with dsDNA [15] was Active. Moreover, the Activity in the assay with DNA [4] stood at 100%. For the same compound, the outcome in the assay on DNA [17] was inactive.
